Columns and labels:
Assay in all cases: relative viability (nuclei count vs DMSO), 5 days (fraction); higher = more cells survive
[1] = compound: COc1cc2nccc(Oc3ccc(NC(=O)C4(C(=O)Nc5ccc(F)cc5)CC4)cc3)c2cc1OC [Cabozantinib] + CS(=O)(=O)N1CCN(Cc2cc3nc(-c4cccc5[nH]ncc45)nc(N4CCOCC4)c3s2)CC1 [Pictilisib] (partner 1 µM)
Outline: (§1)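 The day after seeding in 1536-well plates, lung cancer cell lines were treated by pin tool with a single drug, or with a fixed anchor-drug dose together with five library-drug doses (not always all listed) in √10 steps. After 5 days, a combined fix-and-stain solution (final 0.05% Triton X-100, 1% formaldehyde, 1 ug/ml Hoechst) was added. Nuclei counted on 4× images gave relative viability as treated counts over vehicle counts, reported as the median of duplicate plates.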

[2] = compound: C1=CC(=CC=C1NC(=S)NNC2=C(C=C(C=C2[N+](=O)[O-])C(F)(F)F)[N+](=O)[O-])F [Kobe2602] + CS(=O)(=O)N1CCN(Cc2cc3nc(-c4cccc5[nH]ncc45)nc(N4CCOCC4)c3s2)CC1 [Pictilisib] (partner 1 µM)
Outline: as §1

[3] = compound: C1=CC(=CC=C1NC(=S)NNC2=C(C=C(C=C2[N+](=O)[O-])C(F)(F)F)[N+](=O)[O-])F [Kobe2602] + Nc1ncn([C@H]2C[C@H](O)[C@@H](CO)O2)c(=O)n1 [Decitabine] (partner 2 µM)
Outline: as §1

[4] = compound: O[C@@H](COc1cccc2ncccc12)CN1CCN([C@@H]2c3ccccc3[C@@H]3[C@H](c4ccccc42)C3(F)F)CC1 [Zosuquidar] + CS(=O)(=O)N1CCN(Cc2cc3nc(-c4cccc5[nH]ncc45)nc(N4CCOCC4)c3s2)CC1 [Pictilisib] (partner 1 µM)
Outline: as §1

Cell Line	relative viability ([1]; first compound 0.02 µM)	relative viability ([1]; first compound 0.06325 µM)	relative viability ([1]; first compound 0.2 µM)	relative viability ([1]; first compound 0.6325 µM)	relative viability ([1]; first compound 2 µM)	relative viability ([2]; first compound 0.2 µM)	relative viability ([2]; first compound 0.6325 µM)	relative viability ([2]; first compound 2 µM)	relative viability ([2]; first compound 6.325 µM)	relative viability ([2]; first compound 20 µM)	relative viability ([3]; first compound 0.2 µM)	relative viability ([3]; first compound 0.6325 µM)	relative viability ([3]; first compound 2 µM)	relative viability ([3]; first compound 6.325 µM)	relative viability ([3]; first compound 20 µM)	relative viability ([4]; first compound 0.01 µM)	relative viability ([4]; first compound 0.03162 µM)	relative viability ([4]; first compound 0.1 µM)	relative viability ([4]; first compound 0.3162 µM)	relative viability ([4]; first compound 1 µM)
SK-MES-1	0.357	0.391	0.335	0.386	0.322	0.348	0.362	0.346	0.345	0.362	0.411	0.378	0.335	0.396	0.321	0.324	0.324	0.33	0.394	0.392
HCC-366	0.0953	0.105	0.158	0.0782	0.113	0.0894	0.176	0.0839	0.141	0.211	0.31	0.337	0.333	0.34	0.36	0.154	0.185	0.15	0.151	0.195
NCI-H3122	0.512	0.622	0.579	0.77	0.769	0.575	0.599	0.522	0.583	0.702	0.46	0.496	0.471	0.402	0.391	0.616	0.662	0.524	0.641	0.608
COR-L 105	0.343	0.385		0.43	0.37	0.434	0.433	0.377	0.455	0.387	0.706	0.679	0.473	0.739	0.602	0.404	0.383	0.418	0.492	0.351
201T	0.688	0.715	0.656	0.709	0.71	0.69	0.718	0.672	0.686	0.697	0.89	0.892	0.872	0.949	0.876	0.659	0.683	0.573	0.677	0.665
NCI-H2228	0.539	0.544	0.551	0.455	0.331	0.552	0.372	0.334	0.334	0.33						0.296	0.437	0.633	0.459	0.26
LC-2-ad	0.31	0.402	0.279	0.319	0.177	0.614	0.54	0.459	0.441	0.477	0.664	0.888	0.943	0.825	0.815	0.386	0.566	0.41	0.493	0.524
NCI-H2087	1.01	0.976	0.906	1.01	0.854	0.86	0.832	0.78	0.841	0.95	0.313	0.271	0.27	0.281	0.309	0.894	0.844	0.791	1	0.853
LK-2		0.632	0.565	0.625	0.588	0.642	0.597	0.534	0.542	0.609	0.379	0.293	0.283	0.313	0.442	0.625	0.529	0.576	0.59	0.53
H3255	0.473	0.572		0.466	0.48	0.533	0.451	0.509	0.486	0.509	0.554	0.719	0.57	0.634	0.653	0.49	0.565	0.412	0.526	0.42
NCI-H2347	0.893	0.726	0.897	0.497	0.592	0.745	0.843	0.716	0.558	0.611	0.648	0.618	0.594	0.569	0.661	0.627	0.495	0.467	0.735	0.647
CAL-12T	0.364	0.411	0.383		0.336	0.59	0.556	0.394	0.387	0.548						0.349	0.494		0.533	0.423
A-427	0.657	0.785	0.638	0.773	0.744	0.742	0.925	0.741	0.774	0.98	0.589	0.628	0.51	0.539	0.616	0.665	0.538	0.567	0.91	0.77
HARA	0.315	0.417	0.508	0.474	0.429	0.445	0.415	0.375	0.345	0.495	0.566	0.591	0.5	0.537	0.499	0.589	0.404	0.312	0.5	0.49
NCI-H2170	0.259	0.321	0.274	0.376	0.296	0.325	0.327	0.329	0.324	0.344	0.492	0.455	0.481	0.449	0.478	0.295	0.266	0.312	0.345	0.281
NCI-H2023	0.189	0.228	0.22	0.206	0.2	0.259	0.269	0.223	0.215	0.228	0.232	0.218	0.207	0.199	0.196	0.235	0.235	0.171	0.324	0.271
ABC-1	0.604	0.707	0.681	0.701	0.819	0.821	1.03	0.768	0.923	0.868	1.11	1.31	1.05	1.18	1.16	0.756	0.661	0.724	0.743	0.679
IA-LM	0.471	0.381	0.356	0.39	0.412	0.369	0.306	0.338	0.318	0.317						0.306	0.394	0.342	0.315	0.324
NCI-H520	0.318	0.291	0.28	0.312	0.376	0.253	0.364	0.255	0.225	0.292	0.543	0.616	0.563	0.526	0.48	0.327	0.295	0.289	0.363	0.297

Cell Line	relative viability ([1]; first compound 0.02 µM)	relative viability ([1]; first compound 0.06325 µM)	relative viability ([1]; first compound 0.2 µM)	relative viability ([1]; first compound 0.6325 µM)	relative viability ([1]; first compound 2 µM)	relative viability ([2]; first compound 0.2 µM)	relative viability ([2]; first compound 0.6325 µM)	relative viability ([2]; first compound 2 µM)	relative viability ([2]; first compound 6.325 µM)	relative viability ([2]; first compound 20 µM)	relative viability ([3]; first compound 0.2 µM)	relative viability ([3]; first compound 0.6325 µM)	relative viability ([3]; first compound 2 µM)	relative viability ([3]; first compound 6.325 µM)	relative viability ([3]; first compound 20 µM)	relative viability ([4]; first compound 0.01 µM)	relative viability ([4]; first compound 0.03162 µM)	relative viability ([4]; first compound 0.1 µM)	relative viability ([4]; first compound 0.3162 µM)	relative viability ([4]; first compound 1 µM)
NCI-H1915	0.929	1.04	0.903	0.949	0.908	0.959	0.993	0.994	0.989	1.02	0.247	0.263	0.256	0.265	0.269	0.9	0.919	0.903	1.02	0.967
NCI-H1299	0.961	0.924	0.953	0.876	0.733	0.862	0.957	0.706	0.71	0.916						0.623	0.836	0.968	0.796	0.861
HCC-827	1.08	0.991		0.907	0.816	1	0.932	0.898	0.981	1.18	0.354	0.266	0.355	0.325	0.404	1.08	1.14	0.774	1.05	0.994
EMC-BAC-2	0.505	0.566	0.516	0.554	0.542	0.503	0.6	0.548	0.569	0.558	0.973	0.961	0.961	1.01	0.973	0.511	0.524	0.47	0.635	0.508
NCI-H650	0.765	1.02	1.02	0.774	0.868	0.946	0.935	0.775	0.859	0.883	0.313	0.304	0.32	0.289	0.376	0.787	0.789		1.05	0.942
NCI-H1792	0.334	0.318	0.301	0.293	0.268	0.24	0.337	0.389	0.252	0.303	0.489	0.512	0.461	0.472	0.526	0.355	0.267	0.243	0.311	0.335
NCI-H2009	0.979	0.882	0.882	0.754	0.959	0.843	0.877	0.874	0.876	0.897	0.358	0.414	0.405	0.394	0.372	0.837	0.88	0.677	1.02	0.822
NCI-H2405		0.496	0.602	0.422	0.439	0.459	0.41	0.413	0.425	0.536	0.737	0.749	0.732	0.745	0.806	0.512	0.351	0.467	0.529	0.363
SW 900											0.559	0.454	0.411	0.452	0.387					
NCI-H1563	0.572	0.607	0.637	0.621	0.66	0.648	0.697	0.616	0.684	0.653						0.596	0.632	0.622	0.664	0.661
NCI-H1944		0.367	0.369	0.34	0.342	0.344	0.381	0.353	0.349	0.374	0.502	0.452	0.46	0.439	0.48	0.342	0.337	0.312	0.363	0.349
NCI-H322M	0.443	0.548		0.572	0.526	0.566	0.533	0.534	0.511	0.554	0.707	0.72	0.693	0.741	0.718	0.494	0.577	0.371	0.519	0.534
Calu-6	0.984	1.05	0.878	0.814	0.78	0.935	0.931	0.856	0.885	0.882						0.855	0.942	1.02	0.976	0.918
EBC-1	0.29	0.193	0.169	0.166	0.107	0.365	0.556	0.402	0.378	0.437						0.41	0.52	0.395	0.458	0.377
NCI-H2342											0.846	0.749	0.68	0.658	0.728					
NCI-H1703	0.214	0.229	0.249	0.226	0.18	0.26	0.245	0.225	0.263	0.229						0.239	0.238	0.244	0.233	0.238
NCI-H1648											0.657	0.489	0.402	0.533	0.509					
NCI-H522											0.693	0.654	0.649	0.642	0.756					

Reference: the supplement of paper PMC10307832
